tested on: naive human CD8+ T-cells; assay: CD8+ I-MUNE® T-cell proliferation assay (tritiated thymidine incorporation, dendritic cells + CD8+ T-cells + anti-CD40); format: cell-based; settings: HPV E7.16 9-mer peptides, 5 μg/ml, 45 donors, 1 μg/ml anti-CD40; positive response at least 2.95 times the background
Description: Fresh human peripheral blood cells were collected from humans of unknown exposure status to HPV. These cells were tested to determine antigenic epitopes in HPV 16 and 18, as described in Example 3.
Peripheral mononuclear blood cells (stored at room temperature, no older than 24 hours) were prepared for use as follows. PBMC's were isolated from buffy coat material by centrifuging over an underlay of Lymphoprep at 1000×g for 30 minutes. The interface layer was collected and washed and counted using the Cell-Dyn 3700 System (Abbott). Then, suspensions containing 10^8 PBMC's resuspended in 30 ml of AIM-V (Invitrogen) were prepared and then allowed to adhere to plastic T-75 culture flasks for two hours. The remainder of the cells were frozen at 5×10^7 cells/ml in 45% FCS (Gibco/BRL), 45% PBS w/o Ca & Mg (Mediatech), and 10% DMSO (Sigma). After the two hour PBMC incubation, non-adherent cells were removed from the flasks. The adherent cells were cultured in the flasks with 800 units/ml recombinant human GM-CSF (R&D Systems) and 100 units/ml recombinant human IL-4 (Endogen) at 37° C., 5% CO2. On day 5 of incubation, 50 units/ml recombinant human Il-1α (Endogen) and 0.2 units/ml recombinant human TNF-α were added to the cultures. Adherent and non-adherent dendritic cells were harvested, washed, and counted on day 7, following a one-hour treatment with […] mitomycin C (Sigma) and 10 mM EDTA.
Autologous CD8+ T-cells were prepared from frozen aliquots of PBMCs. After thawing and washing in DPBS, CD8+ T-cells were isolated using a commercially available CD8 negative selection kit (Dynal), according to the manufacturer's instructions. Cells were counted using the Abbott Cell-Dyn 3700 System. The purity obtained using these methods was generally found to be greater than 90%.
This Example describes the assay system used in the present invention. The basic test system is also referred to as the “I-MUNE®” assay system. The basic I-MUNE® assay system was modified as described herein to facilitate analysis of CD8+ T-cell responses. As described in greater detail below, the modifications used in the development of the present invention involved the use of CD8 negative selection beads on PBMC (i.e., instead of CD4). In addition, when CD8 cells were resuspended, […] of a 2 ug/ml anti-CD40 solution was added, before placing the DCs and peptides in the plates (the final concentration of anti-CD40 was 1 ug/ml); and 1 ul of 1 ug/ml PHA was used as a positive control, instead of tetanus toxoid.
In 96-well, round bottom plates, autologous dendritic cells and CD8+ T-cells were combined with test peptides. More specifically, in a volume of 100 μl/well, 2×10^4 dendritic cells in AIM V were combined with individual peptides (at a final peptide concentration of 5 μg/ml and a final DMSO concentration of 0.25%). After a one-hour incubation at 37° C., 5% CO2, 2×10^5 CD8+ T-cells with 2 μg/ml anti-CD40 (eBioscience; Clone 5C3 mouse IgG1, kappa) were added to the culture for a total volume of 200 μl and a final anti-CD40 concentration of 1 μg/ml per well. Negative control wells contained dendritic cells, CD8+ T-cells and 0.25% DMSO. Positive control wells contained dendritic cells, CD8+ T-cells (at the same concentrations as the test wells) and 0.25% DMSO with 5 μg/ml PHA (Sigma) (List). In some experiments, 1 ug/ml anti-IgG1 (eBioscience; Clone P3 mouse IgG1, kappa) was used as an isotype control for comparison purposes. Individual peptides were tested in duplicate or triplicate for each donor.
After 5 days of incubation at 37° C., 5% CO2, the cultures were pulsed with 0.25 μCi/well tritiated thymidine (Perkin Elmer). After a subsequent 24 hours of incubation, plates were harvested and assessed for incorporation of the tritiated thymidine (i.e., T-cell proliferation) using a Wallac Microbeta TriLux liquid scintillation counter (Perkin Elmer). Responses were averaged over the duplicate tests performed for each specimen. […]

Sequence | Epitope Classification
IVTFCCKCD (human papillomavirus) [HPV E7.16 Peptide 54, 9-mer peptide of HPV16 E7] | Minor (“Minor epitopes” are those that have a response rate that is at least twice the background value)
LHEYMLDLQ (human papillomavirus) [HPV E7.16 Peptide 8, 9-mer peptide of HPV16 E7] | Minor (“Minor epitopes” are those that have a response rate that is at least twice the background value)
TLHEYMLDL (human papillomavirus) [HPV E7.16 Peptide 7, 9-mer peptide of HPV16 E7] | Minor (“Minor epitopes” are those that have a response rate that is at least twice the background value)
EDLLMGTLG (human papillomavirus) [HPV E7.16 Peptide 80, 9-mer peptide of HPV16 E7] | Minor (“Minor epitopes” are those that have a response rate that is at least twice the background value)
IVCPICSQK [HPV E7.16 Peptide 89] | Minor (“Minor epitopes” are those that have a response rate that is at least twice the background value)
LLMGTLGIV [HPV E7.16 Peptide 82] | Minor (“Minor epitopes” are those that have a response rate that is at least twice the background value)
HEYMLDLQP (human papillomavirus) [HPV E7.16 Peptide 9, 9-mer peptide of HPV16 E7] | Minor (“Minor epitopes” are those that have a response rate that is at least twice the background value)
DLYCYEQLN (human papillomavirus) [HPV E7.16 Peptide 21, 9-mer peptide of HPV16 E7] | Major (a “major epitope” is defined as having a response rate at least three standard deviations above the mean background response rate)
TPTLHEYML (human papillomavirus) [HPV E7.16 Peptide 5, 9-mer peptide of HPV16 E7] | Minor (“Minor epitopes” are those that have a response rate that is at least twice the background value)
DTPTLHEYM (human papillomavirus) [HPV E7.16 Peptide 4, 9-mer peptide of HPV16 E7] | Moderate (“Moderate epitopes” are those epitopes that produce results that are at least two standard deviations above the mean or three times the background)
LMGTLGIVC (human papillomavirus) [HPV E7.16 Peptide 83, 9-mer peptide of HPV16 E7] | Minor (“Minor epitopes” are those that have a response rate that is at least twice the background value)
DEIDGPAGO (DEIDGPAGQ; human papillomavirus) [HPV E7.16 Peptide 36, 9-mer peptide of HPV16 E7] | Moderate (“Moderate epitopes” are those epitopes that produce results that are at least two standard deviations above the mean or three times the background)
LEDLLMGTL (human papillomavirus) [HPV E7.16 Peptide 79, 9-mer peptide of HPV16 E7] | Minor (“Minor epitopes” are those that have a response rate that is at least twice the background value)
MHGDTPTLH (human papillomavirus) [HPV E7.16 Peptide 1, 9-mer peptide of HPV16 E7] | Minor (“Minor epitopes” are those that have a response rate that is at least twice the background value)
IRTLEDLLM (human papillomavirus) [HPV E7.16 Peptide 76, 9-mer peptide of HPV16 E7] | Minor (“Minor epitopes” are those that have a response rate that is at least twice the background value)
GQAEPDRAH (human papillomavirus) [HPV E7.16 Peptide 43, 9-mer peptide of HPV16 E7] | Minor (“Minor epitopes” are those that have a response rate that is at least twice the background value)
DLLMGTLGI (human papillomavirus) [HPV E7.16 Peptide 81, 9-mer peptide of HPV16 E7] | Minor (“Minor epitopes” are those that have a response rate that is at least twice the background value)
MGTLGIVCP (human papillomavirus) [HPV E7.16 Peptide 84, 9-mer peptide of HPV16 E7] | Minor (“Minor epitopes” are those that have a response rate that is at least twice the background value)

same assay, conditions: HPV E7.18 9-mer peptides, 5 μg/ml, 58 donors, 1 μg/ml anti-CD40; positive response at least 2.95 times the background

Sequence | Epitope Classification
PQNEIPVDL (human papillomavirus) [HPV E7.18 Peptide 17, 9-mer peptide of HPV18 E7] | Minor (“Minor epitopes” are those that have a response rate that is at least twice the background value)
CKCEARIKL (human papillomavirus) [HPV E7.18 Peptide 66, 9-mer peptide of HPV18 E7] | Minor (“Minor epitopes” are those that have a response rate that is at least twice the background value)
SFVCPWCAS (human papillomavirus) [HPV E7.18 Peptide 95, 9-mer peptide of HPV18 E7] | Minor (“Minor epitopes” are those that have a response rate that is at least twice the background value)
ARRAEPQRH (human papillomavirus) [HPV E7.18 Peptide 51, 9-mer peptide of HPV18 E7] | Minor (“Minor epitopes” are those that have a response rate that is at least twice the background value)
RIKLVVESS (human papillomavirus) [HPV E7.18 Peptide 71, 9-mer peptide of HPV18 E7] | Minor (“Minor epitopes” are those that have a response rate that is at least twice the background value)
